Reference: patent US12622968B2, “Formulation for oral delivery of proteins, peptides and small molecules with poor permeability” (R.P. Scherer Technologies, LLC, priority 2019, dated 2026)
“And” between values parts separate entries of the source, which are not always exact repeats. Equal values may be shown once.

Assay: Single dose oral capsule pharmacokinetics of BHV-3500 in dogs (plasma LC-MS/MS)
Type: in vivo, beagle dogs
Parameters: key to t1/2 / Tmax / Cmax / AUC0-4 hr: X = no plasma exposure
Conditions: for increase of plasma level versus no vehicle (Group 4): Group 5, 50 mg with Vehicle 6
Experimental: The pharmacokinetics (PK) of BHV-3500 after a single oral capsule of BHV-3500 in dogs were investigated.
After each dose, blood samples (approximately 3 mL from the jugular vein) for determination of plasma levels of BHV-3500 were obtained from of each dog at six time points (pre-dose; 15, 30, and 60 minutes and 2 and 4 hours post-dose. EDTA was used as the anticoagulant. Plasma samples were frozen at approximately −70′C until analyzed.
For the determination of BHV-3500 in plasma, a 50 μL aliquot from each sample was transferred into the appropriate well of a 96-well plate to which 10 μL of 50% acetonitrile (ACN) in water was added, followed by 250 μL of internal standard solution (10 ng/mL BHV-3500-d8 in ACN). After sealing the plate and vortexing for approximately 5 minutes, the plate was centrifuged at 4,000 rpm for 10 minutes at 4±4° C. A portion (100 μL) of the resulting supernatant was transferred to into the appropriate well (containing 300 μL 0.15% formic acid in water) of another 96-well plate. This plate was sealed and its contents mixed prior to instrumental analysis.
Freshly prepared BHV-3500 standard curves and QC samples were analyzed along with the study samples. Instrument calibrators were prepared by adding 10 μL of a stock BHV-3500 solution to 50 μL of blank dog plasma. Blank dog plasma was sourced from BioIVT (Hicksville, NY) and stored frozen at −20° C. Nominal calibrator concentrations ranged from 2.00 to 200 ng/mL. QC samples were prepared at concentrations of 6.00, 50.0 and 150 ng/mL. Calibrators and QC samples were processed for analysis following the extraction procedure described above.
Calibrator, QC and study samples were analyzed under LC-S/MS instrument conditions detailed in Table 7.
Calibration curves were calculated from the linear regression (weighting factor of 1/x2) of the analyte to internal standard peak area ratios versus the analyte concentrations. Concentrations of analyte in the samples were determined using the peak area ratios and the regression parameters of the calibration curves.
Individual animal plasma BHV-3500 concentration data at scheduled (nominal) sampling times were analyzed using the non-compartmental model f r extravascular administration with Phoenix WinNonlin software (Version 8.1; Certara, Princeton, NJ).
Elimination rate constant values (λz) were calculated by log-linear regression on data points of the terminal phase (using Phoenix WinNonlin's Best Fit Lambda Z Calculation Method option) when allowed by the data; the plasma elimination half-life (t1/2) was calculated as ln(2)/λz. Area under the plasma concentration-time curve values from time zero to the concentration at the 4 hour time point (AUC0-4 hr) were calculated by the linear-up/log-down trapezoidal rule.
Nominal dose levels were used for PK analysis. The PK parameters listed below were evaluated (as applicable and when allowed by the data). • Elimination half-life (t1/2) • Time of occurrence of maximum plasma concentration (Tmax) • Maximum plasma concentration (Cmax) • Area under plasma concentration-time curve [0 to the 4 hour time point; AUC0-4hr]

[1] = Group 1, oral capsule, 20 mg BHV-3500, no vehicle, average
[2] = Group 1, oral capsule, 20 mg BHV-3500, no vehicle, median
[3] = Group 3, oral capsule, 20 mg BHV-3500 in 25 mg DDM, individual dogs
[4] = Group 5, oral capsule, 50 mg BHV-3500 in 900 mg vehicle of Formulation 2 (SEDDS excipients), individual dogs

## Cc1cc(C[C@@H](NC(=O)N2CCC(c3cc4ccccc4[nH]c3=O)CC2)C(=O)N2CCN(C3CCN(C)CC3)CC2)cc2cn[nH]c12 [BHV-3500, (R)—N-(3-(7-methyl-1H indazol-5-yl)-1-(4-(1-methylpiperidin-4-yl)piperazin-1-yl)-1-oxopropan-2-yl)-4-(2-oxo-1,2 dihydroquinolin-3-yl)piperidine-1-carboxamide]
Group 1, oral capsule, 20 mg BHV-3500, no vehicle
  plasma levels at all time points: BQL (BQL = below quantitation limit (2.0 ng/mL))
Group 1, oral capsule, 20 mg BHV-3500, no vehicle, 0.25 h post-dose, average
  BHV-3500 Concentration in Dog Plasma: BQL (BQL = below quantitation limit (2.0 ng/mL))
Group 1, oral capsule, 20 mg BHV-3500, no vehicle, 0.25 h post-dose, individual dogs
  BHV-3500 Concentration in Dog Plasma: BQL (BQL = below quantitation limit (2.0 ng/mL))
Group 1, oral capsule, 20 mg BHV-3500, no vehicle, 0.5 h post-dose, average
  BHV-3500 Concentration in Dog Plasma: BQL (BQL = below quantitation limit (2.0 ng/mL))
Group 1, oral capsule, 20 mg BHV-3500, no vehicle, 0.5 h post-dose, individual dogs
  BHV-3500 Concentration in Dog Plasma: BQL (BQL = below quantitation limit (2.0 ng/mL))
Group 1, oral capsule, 20 mg BHV-3500, no vehicle, 1 h post-dose, average
  BHV-3500 Concentration in Dog Plasma: BQL (BQL = below quantitation limit (2.0 ng/mL))
Group 1, oral capsule, 20 mg BHV-3500, no vehicle, 1 h post-dose, individual dogs
  BHV-3500 Concentration in Dog Plasma: BQL (BQL = below quantitation limit (2.0 ng/mL))
Group 1, oral capsule, 20 mg BHV-3500, no vehicle, 2 h post-dose, average
  BHV-3500 Concentration in Dog Plasma: BQL (BQL = below quantitation limit (2.0 ng/mL))
Group 1, oral capsule, 20 mg BHV-3500, no vehicle, 2 h post-dose, individual dogs
  BHV-3500 Concentration in Dog Plasma: BQL (BQL = below quantitation limit (2.0 ng/mL))
Group 1, oral capsule, 20 mg BHV-3500, no vehicle, 4 h post-dose, average
  BHV-3500 Concentration in Dog Plasma: BQL (BQL = below quantitation limit (2.0 ng/mL))
Group 1, oral capsule, 20 mg BHV-3500, no vehicle, 4 h post-dose, individual dogs
  BHV-3500 Concentration in Dog Plasma: BQL (BQL = below quantitation limit (2.0 ng/mL))
[1]
  AUC0-4 hr: X
  Cmax: X
[2]
  Tmax: X
  t1/2: X
Group 2, oral capsule, 20 mg BHV-3500 in 900 mg vehicle of Formulation 2 (SEDDS excipients), 0.25 h post-dose, average
  BHV-3500 Concentration in Dog Plasma: BQL (BQL = below quantitation limit (2.0 ng/mL))
Group 2, oral capsule, 20 mg BHV-3500 in 900 mg vehicle of Formulation 2 (SEDDS excipients), 0.25 h post-dose, individual dogs
  BHV-3500 Concentration in Dog Plasma: BQL (BQL = below quantitation limit (2.0 ng/mL))
Group 2, oral capsule, 20 mg BHV-3500 in 900 mg vehicle of Formulation 2 (SEDDS excipients), 0.5 h post-dose, average
  BHV-3500 Concentration in Dog Plasma: BQL (BQL = below quantitation limit (2.0 ng/mL))
Group 2, oral capsule, 20 mg BHV-3500 in 900 mg vehicle of Formulation 2 (SEDDS excipients), 0.5 h post-dose, individual dogs
  BHV-3500 Concentration in Dog Plasma: BQL (BQL = below quantitation limit (2.0 ng/mL))
Group 2, oral capsule, 20 mg BHV-3500 in 900 mg vehicle of Formulation 2 (SEDDS excipients), 1 h post-dose, individual dogs
  BHV-3500 Concentration in Dog Plasma: BQL (BQL = below quantitation limit (2.0 ng/mL))
Group 2, oral capsule, 20 mg BHV-3500 in 900 mg vehicle of Formulation 2 (SEDDS excipients), 2 h post-dose, individual dogs
  BHV-3500 Concentration in Dog Plasma: BQL (BQL = below quantitation limit (2.0 ng/mL)) and 19.4 ng/mL and 8.94 ng/mL
Group 2, oral capsule, 20 mg BHV-3500 in 900 mg vehicle of Formulation 2 (SEDDS excipients), 4 h post-dose, individual dogs
  BHV-3500 Concentration in Dog Plasma: BQL (BQL = below quantitation limit (2.0 ng/mL))
Group 2, oral capsule, 20 mg BHV-3500 in 900 mg vehicle of Formulation 2 (SEDDS excipients), individual dogs
  Cmax: 0.0194 µg/mL and 0.00894 µg/mL
Group 3, oral capsule, 20 mg BHV-3500 in 25 mg DDM, 0.25 h post-dose, average
  BHV-3500 Concentration in Dog Plasma: BQL (BQL = below quantitation limit (2.0 ng/mL))
Group 3, oral capsule, 20 mg BHV-3500 in 25 mg DDM, 0.25 h post-dose, individual dogs
  BHV-3500 Concentration in Dog Plasma: BQL (BQL = below quantitation limit (2.0 ng/mL))
Group 3, oral capsule, 20 mg BHV-3500 in 25 mg DDM, 0.5 h post-dose, individual dogs
  BHV-3500 Concentration in Dog Plasma: BQL (BQL = below quantitation limit (2.0 ng/mL))
Group 3, oral capsule, 20 mg BHV-3500 in 25 mg DDM, 1 h post-dose, individual dogs
  BHV-3500 Concentration in Dog Plasma: BQL (BQL = below quantitation limit (2.0 ng/mL))
Group 3, oral capsule, 20 mg BHV-3500 in 25 mg DDM, 2 h post-dose, individual dogs
  BHV-3500 Concentration in Dog Plasma: 9.60 ng/mL and BQL (BQL = below quantitation limit (2.0 ng/mL)) and 28.2 ng/mL
Group 3, oral capsule, 20 mg BHV-3500 in 25 mg DDM, 4 h post-dose, individual dogs
  BHV-3500 Concentration in Dog Plasma: BQL (BQL = below quantitation limit (2.0 ng/mL))
[3]
  Cmax: 0.0096 µg/mL and 0.014 µg/mL and 0.0282 µg/mL
  Tmax: 30 min
Group 4, oral capsule, 50 mg BHV-3500, no vehicle, 0.25 h post-dose, average
  BHV-3500 Concentration in Dog Plasma: BQL (BQL = below quantitation limit (2.0 ng/mL))
Group 4, oral capsule, 50 mg BHV-3500, no vehicle, 0.25 h post-dose, individual dogs
  BHV-3500 Concentration in Dog Plasma: BQL (BQL = below quantitation limit (2.0 ng/mL))
Group 4, oral capsule, 50 mg BHV-3500, no vehicle, 0.5 h post-dose, average
  BHV-3500 Concentration in Dog Plasma: BQL (BQL = below quantitation limit (2.0 ng/mL))
Group 4, oral capsule, 50 mg BHV-3500, no vehicle, 0.5 h post-dose, individual dogs
  BHV-3500 Concentration in Dog Plasma: BQL (BQL = below quantitation limit (2.0 ng/mL))
Group 4, oral capsule, 50 mg BHV-3500, no vehicle, 1 h post-dose, individual dogs
  BHV-3500 Concentration in Dog Plasma: 4.25 ng/mL and 3.55 ng/mL
Group 4, oral capsule, 50 mg BHV-3500, no vehicle, 2 h post-dose, individual dogs
  BHV-3500 Concentration in Dog Plasma: 4.35 ng/mL and 6.61 ng/mL
Group 4, oral capsule, 50 mg BHV-3500, no vehicle, 4 h post-dose, average
  BHV-3500 Concentration in Dog Plasma: BQL (BQL = below quantitation limit (2.0 ng/mL))
Group 4, oral capsule, 50 mg BHV-3500, no vehicle, 4 h post-dose, individual dogs
  BHV-3500 Concentration in Dog Plasma: BQL (BQL = below quantitation limit (2.0 ng/mL))
Group 4, oral capsule, 50 mg BHV-3500, no vehicle, individual dogs
  Cmax: 0.00435 µg/mL and 0.00661 µg/mL
1 hour post-dose
  increase of plasma level versus no vehicle (Group 4): 3.4 ×
2 hours post-dose
  increase of plasma level versus no vehicle (Group 4): 6.6 ×
Group 5, oral capsule, 50 mg BHV-3500 in 900 mg vehicle of Formulation 2 (SEDDS excipients), 0.25 h post-dose, average
  BHV-3500 Concentration in Dog Plasma: BQL (BQL = below quantitation limit (2.0 ng/mL))
Group 5, oral capsule, 50 mg BHV-3500 in 900 mg vehicle of Formulation 2 (SEDDS excipients), 0.25 h post-dose, individual dogs
  BHV-3500 Concentration in Dog Plasma: BQL (BQL = below quantitation limit (2.0 ng/mL))
Group 5, oral capsule, 50 mg BHV-3500 in 900 mg vehicle of Formulation 2 (SEDDS excipients), 0.5 h post-dose, average
  BHV-3500 Concentration in Dog Plasma: BQL (BQL = below quantitation limit (2.0 ng/mL))
Group 5, oral capsule, 50 mg BHV-3500 in 900 mg vehicle of Formulation 2 (SEDDS excipients), 0.5 h post-dose, individual dogs
  BHV-3500 Concentration in Dog Plasma: BQL (BQL = below quantitation limit (2.0 ng/mL))
Group 5, oral capsule, 50 mg BHV-3500 in 900 mg vehicle of Formulation 2 (SEDDS excipients), 1 h post-dose, individual dogs
  BHV-3500 Concentration in Dog Plasma: 6.19 ng/mL and 5.55 ng/mL and 22.7 ng/mL
Group 5, oral capsule, 50 mg BHV-3500 in 900 mg vehicle of Formulation 2 (SEDDS excipients), 2 h post-dose, individual dogs
  BHV-3500 Concentration in Dog Plasma: 13.8 ng/mL and 6.90 ng/mL and 101 ng/mL
Group 5, oral capsule, 50 mg BHV-3500 in 900 mg vehicle of Formulation 2 (SEDDS excipients), 4 h post-dose, individual dogs
  BHV-3500 Concentration in Dog Plasma: 6.88 ng/mL and 2.62 ng/mL and 14.4 ng/mL
[4]
  AUC0-4 hr: 0.0328 µg·h/mL and 0.0177 µg·h/mL and 0.161 µg·h/mL
  Cmax: 0.0138 µg/mL and 0.0069 µg/mL and 0.101 µg/mL
Group 6, oral capsule, 50 mg BHV-3500 in 25 mg DDM, 0.25 h post-dose, average
  BHV-3500 Concentration in Dog Plasma: BQL (BQL = below quantitation limit (2.0 ng/mL))
Group 6, oral capsule, 50 mg BHV-3500 in 25 mg DDM, 0.25 h post-dose, individual dogs
  BHV-3500 Concentration in Dog Plasma: BQL (BQL = below quantitation limit (2.0 ng/mL))
Group 6, oral capsule, 50 mg BHV-3500 in 25 mg DDM, 0.5 h post-dose, average
  BHV-3500 Concentration in Dog Plasma: BQL (BQL = below quantitation limit (2.0 ng/mL))
Group 6, oral capsule, 50 mg BHV-3500 in 25 mg DDM, 0.5 h post-dose, individual dogs
  BHV-3500 Concentration in Dog Plasma: BQL (BQL = below quantitation limit (2.0 ng/mL))
Group 6, oral capsule, 50 mg BHV-3500 in 25 mg DDM, 1 h post-dose, individual dogs
  BHV-3500 Concentration in Dog Plasma: BQL (BQL = below quantitation limit (2.0 ng/mL))
